Test results taken from patent publication EP0219782A2, “Use of angiotensin-converting enzyme inhibitors in the treatment of atherosclerosis, thrombosis and peripheral vascular disease” (HOECHST AKTIENGESELLSCHAFT, priority 1985, dated 1987).

Experiments:
Plättchenaggregation [1] = assay: Platelet aggregation in platelet-rich rabbit plasma in vitro (light transmission, Born); type: cell-based, Kaninchen
Description: (§1) Plättchenreiches Kaninchenplasma wird wie von Born (Arzneimittel-Forsch. 31, 2012 (1981)) angegeben, gewonnen. Die Plättchenaggregation wird durch Erhöhung des Lichtdurchganges durch eine Küvette, die dieses Plasma enthält, gemessen. Die Plättchenzahl wird durch Verdünnung mit autologem, plättchenarmem Plasma auf 450000/mm^s eingestellt. […] Dagegen wird eine durch 4 pg/ml PGI2 bewirkte Aggregationshemmung gegen Arachidonsäure durch die Verbindung der Formel II in genannten Dosisbereich auf 100% gesteigert.

Plättchenaggregation [2] = assay: Acute study: ex vivo platelet aggregation after a single oral dose in conscious rabbits; set-up: species or system Kaninchen; details: single oral dose 1,0 - 10,0 mg/kg, plasma taken after 1 hour
Description: as §1
Wache Kaninchen erhielten eine einmalige orale Dosis von 1,0 - 10,0 mg/kg der Verbindung der Formel II.
(§2) Nach 1 Stunde werden die Tiere getötet und plättchenreiches Plasma gewonnen. Die Plättchenaggregation wird wie unter A) beschrieben bestimmt.

Plättchenaggregation [3] = assay: Chronic study: ex vivo platelet aggregation after 14 days of dosing in conscious rabbits; set-up: species or system Kaninchen; details: 1 mg/kg/d for 14 days; found in all animals
Description: as §1, §2
Wache Kaninchen erhielten 1 mg/kg/d der Verbindung der Formel II für 14 Tage, dann wurde wie unter 1) beschrieben weiter verfahren.

CCOC(=O)[C@H](CCc1ccccc1)N[C@@H](C)C(=O)N1[C@H](C(=O)O)C[C@@H]2CCC[C@@H]21 [Formel II, N-(l-S-Carbethoxy-3-phenyl-propyl)-S-alanyl-cis-endo-2-azabicyclo[3.3.0]octan-3-S-carbonsäure]
durch PGI2 bewirkte Aggregationshemmung gegen Arachidonsäure, gesteigert auf (Plättchenaggregation [1]; 4 pg/ml PGI2, compound at 0.1-10 pg/ml Plasma): 100%
Einfluß auf die durch Kollagen ausgelöste Aggregation (Plättchenaggregation [1]; 0.1-10 pg/ml Plasma, stimulus 4 pg/ml Kollagen): keinen Einfluß
Einfluß auf die durch Arachidonsäure ausgelöste Aggregation (Plättchenaggregation [1]; 0.1-10 pg/ml Plasma, stimulus 0.24 mmol/1 Arachidonsäure): keinen Einfluß
Einfluß auf die durch ADP ausgelöste Aggregation (Plättchenaggregation [1]; 0.1-10 pg/ml Plasma, stimulus 5 mmol/1 ADP): keinen Einfluß
Aggregation gegenüber ADP (Plättchenaggregation [2]): vermindert
Aggregation gegenüber Kollagen (Plättchenaggregation [2]): vermindert
Potenzierung der PGI2-Wirkung (Plättchenaggregation [2]): ebenfalls beobachtet
Aggregation gegenüber Arachidonsäure (Plättchenaggregation [2]; effect especially against Arachidonsäure): vermindert
durch ADP ausgelöste Plättchenaggregation (Plättchenaggregation [3]): ausgeprägte Inhibierung
durch Arachidonsäure ausgelöste Plättchenaggregation (Plättchenaggregation [3]): ausgeprägte Inhibierung
